pEC50: −log10 of the molar value.
Tests used:
[1] = test system: cells dissociated from PDX FLC1 and FLC5; assay: Primary high throughput screen, 1μM, 72 h; type: cell-based, human; settings: pass = survival <60%
FLC PDX cells = assay: Validation screen on cells dissociated from FLC PDX; type: cell-based, human; settings: for Therapeutic window for FLC over PHH: FLC PDX cells compared with PHH; for Effect on FLC PDX cells in vitro (dose response, normalized percent survival): 10nM-10μM, FLC1-6; for Efficacy ranking in the screen: ranked by average −log10EC50 for FLC1-5 minus −log10EC50 for PHH
[2] = test system: cells dissociated directly from patient tumors (FLC.T6-T11); assay: Direct from patient in vitro screening; type: cell-based, human; settings: for Sensitivity of cells tested directly from patients: 10μM-10nM, 72h, Cell Titer Glo
[3] = test system: primary human hepatocytes (PHH); assay: Validation counter-screen on primary human hepatocytes; settings: 72 h; for Effect on PHH (dose response, normalized percent survival): up to 10 μM
FLC1 cells = assay: Role of ROS: survival with or without N-acetyl cysteine 10mM; type: cell-based, human; settings: NAC 10mM, 72 h

Row | SMILES | Result in primary screen (normalized percent survival) [1] | also measured
1 | COc1ccc(C[C@H](NC(=O)[C@H](C)NC(=O)CN2CCOCC2)C(=O)N[C@@H](Cc2ccccc2)C(=O)C2(C)CO2)cc1 (stereo in doubt) [ONX-0914] | did not see any effect | 
2 | CNC(=O)c1cccc(-c2ccc3c(N4CCOC[C@@H]4C)nc(N4CCOC[C@@H]4C)nc3n2)c1 [AZD2014] |  | Therapeutic window for FLC over PHH (FLC PDX cells): no therapeutic window
3 | Cc1cc(C(=O)NOCCO)c(Nc2ccc(I)cc2F)n(C)c1=O [AZD8330] | None | 
4 | CN(C)Cc1cccc(N/C(=C2\C(=O)Nc3cc(C(N)=O)ccc32)c2ccccc2)c1 [BIX02188] | None | 
5 | CN(C)Cc1cccc(N/C(=C2\C(=O)Nc3cc(C(=O)N(C)C)ccc32)c2ccccc2)c1 [BIX02189] | None | 
6 | COc1ccc(S(=O)(=O)Nc2cc(-c3c(O)ccc4ccccc34)c(O)c3ccccc23)cc1 [C188-9] |  | Effect on FLC PDX cells in vitro (dose response, normalized percent survival) (FLC PDX cells; 72 h): no effect
7 | CONC(=O)[C@H]1[C@@H](O)[C@@]2(O)c3c(OC)cc(OC)cc3O[C@@]2(c2ccc(OC)cc2)[C@@H]1c1ccccc1 [CR-1-31-B] |  | Sensitivity of cells tested directly from patients [2]: sensitive; Effect on PHH (dose response, normalized percent survival) [3]: no effect
8 | CN(NC(=O)CC(=O)NN(C)C(=S)c1ccccc1)C(=S)c1ccccc1 [Elesclomol] |  | Efficacy ranking in the screen (FLC PDX cells): sixth
9 | C#Cc1cccc(Nc2ncnc3cc(OCCOC)c(OCCOC)cc23)c1 [Erlotinib] |  | Effect on FLC PDX cells in vitro (dose response, normalized percent survival) (FLC PDX cells; 72 h): no effect
10 | Cc1c(CN2CCN(C(=O)[C@H](C)O)CC2)sc2c(N3CCOCC3)nc(-c3cnc(N)nc3)nc12 [GDC0980] |  | Therapeutic window for FLC over PHH (FLC PDX cells): no therapeutic window
11 | CC1(C)C=C(CN2C/C(=C\c3ccc(F)cc3)C(=O)/C(=C/c3ccc(F)cc3)C2)C(C)(C)N1O [HO3867] |  | Effect on FLC PDX cells in vitro (dose response, normalized percent survival) (FLC PDX cells; 72 h): no effect
12 | Clc1ccc(N/N=C(\c2ccccc2)c2ccccn2)nc1 [JIB-04] |  | Effect on FLC PDX cells in vitro (dose response, normalized percent survival) (FLC PDX cells; 72 h): effective against all PDX lines; Efficacy ranking in the screen (FLC PDX cells): second; pEC50 (FLC PDX cells; read-out: EC50 against FLC PDX in vitro, across all FLC PDX lines, 72 h): 6.70 to 7.70; pEC50 ([3]; read-out: EC50 PHH): < 5.00
13 | CC(=O)O/N=C1\C(=O)N(Cc2cc(Cl)ccc2Cl)c2ccc(Cl)cc21 [LDN-57444] | did not see any effect | 
14 | CC(C)c1c2cc(-c3ccnc(NC4CCC(NC5CCOCC5)CC4)n3)ccc2nn1C (centres unmarked) [LY2857785] |  | Sensitivity of cells tested directly from patients [2]: some sensitivity; Effect of N-acetyl cysteine (NAC) on the toxicity of the drug (FLC1 cells): mildly attenuated
15 | CC(C)C[C@H](NC(=O)CNC(=O)c1cc(Cl)ccc1Cl)B1OC(=O)C(CC(=O)O)(CC(=O)O)O1 [MLN9708] | did not see any effect | 
16 | Cc1cc(OCc2nnc(SC3CCCC3)n2-c2cccnc2)ccc1-c1ccc(S(C)(=O)=O)cc1 [NMS873] |  | Efficacy ranking in the screen (FLC PDX cells): 72
17 | Cc1ccc(S(=O)(=O)c2ccc([N+](=O)[O-])o2)cc1 [NSC697923] |  | Efficacy ranking in the screen (FLC PDX cells): 7; Sensitivity of cells tested directly from patients [2]: blunted response; Drug sensitivity of FLC.T6 compared with derived PDX FLC6 (EC50) ([2]; cells direct from patient tumor vs cells from its PDX): outliers; Effect of N-acetyl cysteine (NAC) on the toxicity of the drug (FLC1 cells): completely abrogated
18 | COc1ccc(-c2ccc3ncc4c(c3c2)n(-c2ccc(N3CCNCC3)c(C(F)(F)F)c2)c(=O)n4C)cn1 [NVP-BGT226] |  | Effect on FLC PDX cells in vitro (dose response, normalized percent survival) (FLC PDX cells; 72 h): potency against all FLC PDX
19 | COc1cccc2cc(-c3nc([C@H]4CC[C@H](C(=O)O)CC4)n4ncnc(N)c34)[nH]c12 [OSI-027] |  | Therapeutic window for FLC over PHH (FLC PDX cells): no therapeutic window

Row | SMILES | Result in primary screen (normalized percent survival) [1] | also measured
20 | CC(=O)c1cc([N+](=O)[O-])c(Sc2cccc(Cl)c2Cl)s1 [P5091] |  | Efficacy ranking in the screen (FLC PDX cells): 38
21 | COc1cccc(-c2cc(=O)c3ccccc3o2)c1N [PD98059] | None | 
22 | O=C(NOCC1CC1)c1ccc(F)c(F)c1Nc1ccc(I)cc1Cl [PD184352] | None | 
23 | Cc1cc(I)ccc1Nc1c(C(=O)NOCC2CC2)cc(F)c(F)c1F [PD198306] | None | 
24 | N#C/C(=C(/N)Sc1ccc(N)cc1)c1ccccc1C(F)(F)F [SL-327] | None | 
25 | CNC(=O)c1cc(Oc2ccc(NC(=O)Nc3ccc(Cl)c(C(F)(F)F)c3)cc2)ccn1 [Sorafenib] |  | Therapeutic window for FLC over PHH (FLC PDX cells): no therapeutic window
26 | Cn1c(=O)c(F)c(Nc2ccc(I)cc2F)c2c(=O)n(C[C@@H](O)CO)cnc21 [TAK-733] | None | 
27 | N#CC(=C(/N)Sc1ccccc1N)/C(C#N)=C(/N)Sc1ccccc1N [U0126] | None | 
28 | CNC(=O)Nc1ccc(-c2nc(N3CC4CCC(C3)O4)c3cnn(C4CCC5(CC4)OCCO5)c3n2)cc1 [WYE-125132] |  | Therapeutic window for FLC over PHH (FLC PDX cells): no therapeutic window
29 | COc1cc(Nc2ncc3c(n2)-c2ccc(Cl)cc2C(c2c(F)cccc2OC)=NC3)ccc1C(=O)O [alisertib] |  | Effect on FLC PDX cells in vitro (dose response, normalized percent survival) (FLC PDX cells; 72 h): no effect
30 | CC(C)(C#N)c1cc(Cn2cncn2)cc(C(C)(C)C#N)c1 [anastrozole] | did not pass our primary screen | 
31 | COc1cc(C[C@H]2C(=O)OC[C@@H]2Cc2ccc(OC)c(OC)c2)ccc1O [arctigenin] | None | 
32 | Cn1cnc2c(F)c(Nc3ccc(Br)cc3F)c(C(=O)NOCCO)cc21 [binimetinib] | None | 
33 | CC(C)C[C@H](NC(=O)[C@H](Cc1ccccc1)NC(=O)c1cnccn1)B(O)O [bortezomib] | did not see any effect | 
34 | N.N.O=C([O-])C1(C(=O)[O-])CCC1.[Pt+2] [carboplatin] | no to minimal activity | 
35 | N.N.[Cl][Pt][Cl] [cisplatin] | no to minimal activity | 
36 | O=C(c1ccc(F)c(F)c1Nc1ccc(I)cc1F)N1CC(O)([C@@H]2CCCCN2)C1 [cobimetinib] | None | 
37 | CC(C)(C)OC(=O)N[C@H]1CCCCC/C=C\[C@@H]2C[C@@]2(C(=O)NS(=O)(=O)C2CC2)NC(=O)[C@@H]2C[C@@H](OC(=O)N3Cc4cccc(F)c4C3)CN2C1=O [danoprevir] | did not see any effect | 
38 | CCC[C@H](NC(=O)/C(C#N)=C/c1cccc(Br)n1)c1ccccc1 [degrasyn] | did not see any effect | 

Row | SMILES | Result in primary screen (normalized percent survival) [1] | also measured
39 | CC(C)C[C@H](NC(=O)[C@@H](NC(=O)c1cccc(-c2ccccc2)n1)[C@@H](C)O)B(O)O [delanzomib] | did not see any effect | 
40 | CCc1cnn2c(NCc3ccc[n+]([O-])c3)cc(N3CCCC[C@H]3CCO)nc12 [dinaciclib] |  | Sensitivity of cells tested directly from patients [2]: some sensitivity; Effect on PHH (dose response, normalized percent survival) [3]: toxic
41 | COc1cc([C@@H]2c3cc4c(cc3[C@@H](O[C@@H]3O[C@@H]5CO[C@@H](C)O[C@H]5[C@H](O)[C@H]3O)[C@H]3COC(=O)[C@H]23)OCO4)cc(OC)c1O [etoposide] | no to minimal activity | 
42 | C=C1C[C@@H]2[C@H](CC[C@]3(C)C(=O)CC[C@@H]23)[C@@]2(C)C=CC(=O)C=C12 [exemestane] | did not pass our primary screen | 
43 | N#Cc1ccc(C2CCCc3cncn32)cc1 (centres unmarked) [fadrozole] | did not pass our primary screen | 
44 | COc1ccc(-c2nc(N3CCOCC3)c3sc(CN(C)c4ncc(C(=O)NO)cn4)cc3n2)cn1 [fimepinostat] |  | Effect on FLC PDX cells in vitro (dose response, normalized percent survival) (FLC PDX cells; 72 h): affected FLC1,3,4; Efficacy ranking in the screen (FLC PDX cells): 22
45 | O=c1[nH]cc(F)c(=O)[nH]1 [fluorouracil] | no to minimal activity | 
46 | C[C@]12CCC(=O)C(O)=C1CC[C@@H]1[C@@H]2CC[C@]2(C)C(=O)CC[C@@H]12 [formestane] | did not pass our primary screen | 
47 | Nc1ccn([C@@H]2O[C@H](CO)[C@@H](O)C2(F)F)c(=O)n1 [gemcitabine] | no to minimal activity | 
48 | O=P1(NCCCl)OCCCN1CCCl (centres unmarked) [ifosfamide] | no to minimal activity | 
49 | CCc1c2c(nc3ccc(OC(=O)N4CCC(N5CCCCC5)CC4)cc13)-c1cc3c(c(=O)n1C2)COC(=O)[C@]3(O)CC [irinotecan] |  | Effect on FLC PDX cells in vitro (dose response, normalized percent survival) (FLC PDX cells; 72 h): no effect
50 | CC(C)C[C@H](NC(=O)CNC(=O)c1cc(Cl)ccc1Cl)B(O)O [ixazomib] | did not see any effect | 
51 | N#Cc1ccc(C(c2ccc(C#N)cc2)n2cncn2)cc1 [letrozole] | did not pass our primary screen | 
52 | O=C(NOC[C@H](O)CO)c1ccc(F)c(F)c1Nc1ccc(I)cc1F [mirdametinib] | None | 
53 | CC1(C)CCC(c2ccc(Cl)cc2)=C(CN2CCN(c3ccc(C(=O)NS(=O)(=O)c4ccc(N[C@H](CCN5CCOCC5)CSc5ccccc5)c(S(=O)(=O)C(F)(F)F)c4)cc3)CC2)C1 [navitoclax] |  | Efficacy ranking in the screen (FLC PDX cells): fifth; Efficacy ranking in the screen (FLC PDX cells; listed as Navitoclax): 5
54 | O=C1[O][Pt]2([NH][C@@H]3CCCC[C@H]3[NH]2)[O]C1=O [oxaliplatin] | no to minimal activity | 
55 | O=C(NC[C@H](O)CO)c1ccncc1Nc1ccc(I)cc1F [pimasertib] | None | 
56 | CNC(=O)c1cc(Oc2ccc(NC(=O)Nc3ccc(Cl)c(C(F)(F)F)c3)c(F)c2)ccn1 [regorafenib] |  | Therapeutic window for FLC over PHH (FLC PDX cells): no therapeutic window
57 | Cn1cnc2c(F)c(Nc3ccc(Br)cc3Cl)c(C(=O)NOCCO)cc21 [selumetinib] | None | 

Source: article PMC8734228 (Cancer discovery, 2021)
